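Values below derive from 48-hour exposures of cells grown in 96-well plates, with endpoints linearly interpolated between the two concentrations bracketing the appropriate inhibition level. GI50 marks 50% less growth. At the TGI there is no net growth.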
Columns and labels:
Test in all cases: NCI tumour cell line growth inhibition, 48 h
NCI-H226 lung = system: NCI-H226 lung
NCI-H23 lung = system: NCI-H23 lung
NCI-H460 lung = system: NCI-H460 lung
NCI-H522 lung = system: NCI-H522 lung
OVCAR-3 ovarian = system: OVCAR-3 ovarian
OVCAR-4 ovarian = system: OVCAR-4 ovarian
OVCAR-5 ovarian = system: OVCAR-5 ovarian
OVCAR-8 ovarian = system: OVCAR-8 ovarian
PC-3 prostate = system: PC-3 prostate
RPMI-8226 leukemia = system: RPMI-8226 leukemia
RXF 393 renal = system: RXF 393 renal
SF-268 CNS = system: SF-268 CNS
SF-295 CNS = system: SF-295 CNS
SK-MEL-2 melanoma = system: SK-MEL-2 melanoma
SK-MEL-28 melanoma = system: SK-MEL-28 melanoma
SK-MEL-5 melanoma = system: SK-MEL-5 melanoma
SK-OV-3 ovarian = system: SK-OV-3 ovarian
SN12C renal = system: SN12C renal
SNB-19 CNS = system: SNB-19 CNS
SNB-75 CNS = system: SNB-75 CNS
SW-620 colon = system: SW-620 colon
T-47D breast = system: T-47D breast
TK-10 renal = system: TK-10 renal
U251 CNS = system: U251 CNS
UACC-257 melanoma = system: UACC-257 melanoma
UACC-62 melanoma = system: UACC-62 melanoma
UO-31 renal = system: UO-31 renal

## COc1cc(/C=C\c2cc(OC)c(OC)c(OC)c2)cc(NS(=O)(=O)c2cccc(Cl)c2)c1OC
NCI-H226 lung
  GI50: 311 nM
  TGI: > 100000 nM
NCI-H23 lung
  GI50: 386 nM
  TGI: > 100000 nM
NCI-H460 lung
  GI50: 36.2 nM
  TGI: > 100000 nM
NCI-H522 lung
  GI50: 37.3 nM
  TGI: 88200 nM
OVCAR-3 ovarian
  GI50: 34.6 nM
  TGI: > 100000 nM
OVCAR-4 ovarian
  GI50: 248 nM
  TGI: > 100000 nM
OVCAR-5 ovarian
  GI50: 641 nM
  TGI: > 100000 nM
OVCAR-8 ovarian
  GI50: 429 nM
  TGI: > 100000 nM
PC-3 prostate
  GI50: 45.2 nM
  TGI: > 100000 nM
RPMI-8226 leukemia
  GI50: 59.7 nM
  TGI: > 100000 nM
RXF 393 renal
  GI50: 338 nM
  TGI: > 100000 nM
SF-268 CNS
  GI50: 202 nM
  TGI: > 100000 nM
SF-295 CNS
  GI50: 45.3 nM
  TGI: > 100000 nM
SK-MEL-2 melanoma
  GI50: 1380 nM
  TGI: > 100000 nM
SK-MEL-28 melanoma
  GI50: 1610 nM
  TGI: 49000 nM
SK-MEL-5 melanoma
  GI50: 229 nM
  TGI: 519 nM
SK-OV-3 ovarian
  GI50: 1150 nM
  TGI: > 100000 nM
SN12C renal
  GI50: 223 nM
  TGI: > 100000 nM
SNB-19 CNS
  GI50: 214 nM
  TGI: > 100000 nM
SNB-75 CNS
  GI50: 29.8 nM
  TGI: > 100000 nM
SW-620 colon
  GI50: 43.8 nM
  TGI: > 100000 nM
T-47D breast
  GI50: 39500 nM
  TGI: > 100000 nM
TK-10 renal
  GI50: 2010 nM
  TGI: > 100000 nM
U251 CNS
  GI50: 48.2 nM
  TGI: > 100000 nM
UACC-257 melanoma
  GI50: 20300 nM
  TGI: > 100000 nM
UACC-62 melanoma
  GI50: 56.8 nM
  TGI: > 100000 nM
UO-31 renal
  GI50: 93.7 nM
  TGI: > 100000 nM
